Data taken from patent US12564638B2 (SHANGHAITECH UNIVERSITY, priority 2019, dated 2026).

What was measured:
[1] = tested on: PC9 cells (EGFR Exon 19 del, non-small cell lung cancer cells); assay: Cell viability assay (WST/CCK8), PC9 cells; assay type: cell-based; details: Homo sapiens, PC-9; PC9 (Exon19 Del), 72 hours, WST (CCK8); read-out: IC50 (half inhibitory concentration)
Summary of the method: (§1)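 Plated 3 000 cells/well in complete RPMI1640 the day before dosing; controls were DMSO (negative) and EGFR TKIs (positive).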

[2] = tested on: HCC827 cells (EGFR Exon19 del, non-small cell lung cancer cells); assay: Cell viability assay (WST/CCK8), HCC827 cells; assay type: cell-based; details: Homo sapiens, HCC827, 72 h, HCC827 (Exon19 Del), 72 hours, WST (CCK8); read-out: IC50 (half inhibitory concentration)
Summary of the method: as §1

Row | Compound | IC50 [1] | IC50 [2]
1 | COc1cc2ncnc(Nc3ccc(F)c(Cl)c3)c2cc1NC(=O)/C=C/CN1CCC(N2CCN(C(=O)CCN3CCN(CCC(=O)N[C@H](C(=O)N4C[C@H](O)C[C@H]4C(=O)NCc4ccc(-c5scnc5C)cc4)C(C)(C)C)CC3)CC2)CC1 [SIAIS249105, (2S,4R)-1-((S)-2-(3-(4-(3-(4-(1-((E)-4-((4-((3-chloro-4-fluorophenyl)amino)-7-methoxyquinazolin-6-yl)amino)-4-oxobut-2-en-1-yl)piperidin-4-yl)piperazin-1-yl)-3-oxopropyl)piperazin-1-yl)propanamido)-3,3-dimethylbutanoyl)-4-hydroxy-N-(4-(4-methylthiazol-5-yl)benzyl)pyrrolidine-2-carboxamide] | 60.5 nM | 54.3 nM
2 | COc1cc2ncnc(Nc3ccc(F)c(Cl)c3)c2cc1NC(=O)/C=C/CN1CCN(C(=O)COCCOCCSc2cccc3c2CN(C2CCC(=O)NC2=O)C3=O)CC1 (stereo not drawn) [SIAIS262001, (E)-N-(4-((3-chloro-4-fluorophenyl)amino)-7-methoxyquinazolin-6-yl)-4-(4-(2-(2-(2-((2-(2,6-dioxopiperidin-3-yl)-1-oxoisoindolin-4-yl)thio)ethoxy)ethoxy)acetyl)piperazin-1-yl)but-2-enamide] | 53 nM | 26.9 nM
3 | COc1cc2ncnc(Nc3ccc(F)c(Cl)c3)c2cc1NC(=O)/C=C/CN1CCN(C(=O)COCCOCCOCCSc2cccc3c2CN(C2CCC(=O)NC2=O)C3=O)CC1 (stereo not drawn) [SIAIS262002, (E)-N-(4-((3-chloro-4-fluorophenyl)amino)-7-methoxyquinazolin-6-yl)-4-(4-(2-(2-(2-(2-((2-(2,6-dioxopiperidin-3-yl)-1-oxoisoindolin-4-yl)thio)ethoxy)ethoxy)ethoxy)acetyl)piperazin-1-yl)but-2-enamide] | 78 nM | 26.1 nM
4 | COc1cc2ncnc(Nc3ccc(F)c(Cl)c3)c2cc1NC(=O)/C=C/CN1CCN(C(=O)COCCOCCSc2cccc3c2C(=O)N(C2CCC(=O)NC2=O)C3=O)CC1 (stereo not drawn) [SIAIS262005, (E)-N-(4-((3-chloro-4-fluorophenyl)amino)-7-methoxyquinazolin-6-yl)-4-(4-(2-(2-(2-((2-(2,6-dioxopiperidin-3-yl)-1,3-dioxoisoindolin-4-yl)thio)ethoxy)ethoxy)acetyl)piperazin-1-yl)but-2-enamide] | 84 nM | 66.9 nM
5 | COc1cc2ncnc(Nc3ccc(F)c(Cl)c3)c2cc1NC(=O)/C=C/CN1CCN(C(=O)COCCOCCOCCOCCSc2cccc3c2C(=O)N(C2CCC(=O)NC2=O)C3=O)CC1 (stereo not drawn) [SIAIS262007, (E)-N-(4-((3-chloro-4-fluorophenyl)amino)-7-methoxyquinazolin-6-yl)-4-(4-(14-((2-(2,6-dioxopiperidin-3-yl)-1,3-dioxoisoindolin-4-yl)thio)-3,6,9,12-tetraoxatetradecanoyl)piperazin-1-yl)but-2-enamide] | 84 nM | 26 nM
6 | COc1cc2ncnc(Nc3ccc(F)c(Cl)c3)c2cc1NC(=O)/C=C/CN1CCN(C(=O)CCOCCOCCNc2cccc3c2C(=O)N(C2CCC(=O)NC2=O)C3=O)CC1 (stereo not drawn) [SIAIS262013, (E)-N-(4-((3-chloro-4-fluorophenyl)amino)-7-methoxyquinazolin-6-yl)-4-(4-(3-(2-(2-((2-(2,6-dioxopiperidin-3-yl)-1,3-dioxoisoindolin-4-yl)amino)ethoxy)ethoxy)propanoyl)piperazin-1-yl)but-2-enamide] | 28 nM | 35.8 nM
7 | COc1cc2ncnc(Nc3ccc(F)c(Cl)c3)c2cc1NC(=O)/C=C/CN1CCN(C(=O)CCCCCCNc2cccc3c2C(=O)N(C2CCC(=O)NC2=O)C3=O)CC1 (stereo not drawn) [SIAIS262015, (E)-N-(4-((3-chloro-4-fluorophenyl)amino)-7-methoxyquinazolin-6-yl)-4-(4-(7-((2-(2,6-dioxopiperidin-3-yl)-1,3-dioxoisoindolin-4-yl)amino)heptanoyl)piperazin-1-yl)but-2-enamide] | 12 nM | 3 nM
8 | COc1cc2ncnc(Nc3ccc(F)c(Cl)c3)c2cc1NC(=O)/C=C/CN1CCN(C(=O)CCNc2cccc3c2C(=O)N(C2CCC(=O)NC2=O)C3=O)CC1 (stereo not drawn) [SIAIS262016, (E)-N-(4-((3-chloro-4-fluorophenyl)amino)-7-methoxyquinazolin-6-yl)-4-(4-(3-((2-(2,6-dioxopiperidin-3-yl)-1,3-dioxoisoindolin-4-yl)amino)propanoyl)piperazin-1-yl)but-2-enamide] | 112 nM | 4.5 nM
9 | COc1cc2ncnc(Nc3ccc(F)c(Cl)c3)c2cc1NC(=O)/C=C/CN1CCC(N2CCN(C(=O)CCc3cccc4c3CN(C3CCC(=O)NC3=O)C4=O)CC2)CC1 (stereo not drawn) [SIAIS262052, (E)-N-(4-((3-chloro-4-fluorophenyl)amino)-7-methoxyquinazolin-6-yl)-4-(4-(4-(3-(2-(2,6-dioxopiperidin-3-yl)-1-oxoisoindolin-4-yl)propanoyl)piperazin-1-yl)piperidin-1-yl)but-2-enamide] | 1.3 nM | 1.4 nM
10 | COc1cc2ncnc(Nc3ccc(F)c(Cl)c3)c2cc1NC(=O)/C=C/CN1CCC(N2CCN(CCCCCCSc3cccc4c3CN(C3CCC(=O)NC3=O)C4=O)CC2)CC1 (stereo not drawn) [SIAIS262065, (E)-N-(4-((3-chloro-4-fluorophenyl)amino)-7-methoxyquinazolin-6-yl)-4-(4-(4-(6-((2-(2,6-dioxopiperidin-3-yl)-1-oxoisoindolin-4-yl)thio)hexyl)piperazin-1-yl)piperidin-1-yl)but-2-enamide] | 185 nM | 3.1 nM
11 | COc1cc2ncnc(Nc3ccc(F)c(Cl)c3)c2cc1NC(=O)/C=C/CN1CCC(NC(=O)CSc2cccc3c2CN(C2CCC(=O)NC2=O)C3=O)CC1 (stereo not drawn) [SIAIS262110, (E)-N-(4-((3-chloro-4-fluorophenyl)amino)-7-methoxyquinazolin-6-yl)-4-(4-(2-((2-(2,6-dioxopiperidin-3-yl)-1-oxoisoindolin-4-yl)thio)acetamido)piperidin-1-yl)but-2-enamide] | 73 nM | 20 nM

Now from value to compound:

Row | IC50 [1] | IC50 [2] | Compound
12 | 37.6 nM | 18.2 nM | COc1cc2ncnc(Nc3ccc(F)c(Cl)c3)c2cc1NC(=O)/C=C/CN1CCC(N2CCN(C(=O)CCC(=O)NCCNc3cccc4c3C(=O)N(C3CCC(=O)NC3=O)C4=O)CC2)CC1 (stereo not drawn) [SIAIS249104, (E)-N-(4-((3-chloro-4-fluorophenyl)amino)-7-methoxyquinazolin-6-yl)-4-(4-(4-(4-((2-((2-(2,6-dioxopiperidin-3-yl)-1,3-dioxoisoindolin-4-yl)amino)ethyl)amino)-4-oxobutanoyl)piperazin-1-yl)piperidin-1-yl)but-2-enamide]
13 | 50.1 nM | 16.2 nM | COc1cc2ncnc(Nc3ccc(F)c(Cl)c3)c2cc1NC(=O)/C=C/CN1CCC(N2CCN(C(=O)CCc3ccc(CCC(=O)N[C@H](C(=O)N4C[C@H](O)C[C@H]4C(=O)NCc4ccc(-c5scnc5C)cc4)C(C)(C)C)cc3)CC2)CC1 [SIAIS249106, (2S,4R)-1-((S)-2-(3-(4-(3-(4-(1-((E)-4-((4-((3-chloro-4-fluorophenyl)amino)-7-methoxyquinazolin-6-yl)amino)-4-oxobut-2-en-1-yl)piperidin-4-yl)piperazin-1-yl)-3-oxopropyl)phenyl)propanamido)-3,3-dimethylbutanoyl)-4-hydroxy-N-(4-(4-methylthiazol-5-yl)benzyl)pyrrolidine-2-carboxamide]
14 | 15 nM | 7.2 nM | COc1cc2ncnc(Nc3ccc(F)c(Cl)c3)c2cc1NC(=O)/C=C/CN1CCN(C(=O)COCCOCCOCCOCCOCCSc2cccc3c2CN(C2CCC(=O)NC2=O)C3=O)CC1 (stereo not drawn) [SIAIS262004, (E)-N-(4-((3-chloro-4-fluorophenyl)amino)-7-methoxyquinazolin-6-yl)-4-(4-(17-((2-(2,6-dioxopiperidin-3-yl)-1-oxoisoindolin-4-yl)thio)-3,6,9,12,15-pentaoxaheptadecan-1-oyl)piperazin-1-yl)but-2-enamide]
15 | 73 nM | 35.5 nM | COc1cc2ncnc(Nc3ccc(F)c(Cl)c3)c2cc1NC(=O)/C=C/CN1CCN(C(=O)COCCOCCOCCSc2cccc3c2C(=O)N(C2CCC(=O)NC2=O)C3=O)CC1 (stereo not drawn) [SIAIS262006, (E)-N-(4-((3-chloro-4-fluorophenyl)amino)-7-methoxyquinazolin-6-yl)-4-(4-(2-(2-(2-(2-((2-(2,6-dioxopiperidin-3-yl)-1,3-dioxoisoindolin-4-yl)thio)ethoxy)ethoxy)ethoxy)acetyl)piperazin-1-yl)but-2-enamide]
16 | 128 nM | 39.5 nM | COc1cc2ncnc(Nc3ccc(F)c(Cl)c3)c2cc1NC(=O)/C=C/CN1CCN(C(=O)CCOCCOCCOCCOCCNc2cccc3c2C(=O)N(C2CCC(=O)NC2=O)C3=O)CC1 (stereo not drawn) [SIAIS262014, (E)-N-(4-((3-chloro-4-fluorophenyl)amino)-7-methoxyquinazolin-6-yl)-4-(4-(1-((2-(2,6-dioxopiperidin-3-yl)-1,3-dioxoisoindolin-4-yl)amino)-3,6,9,12-tetraoxapentadecan-15-oyl)piperazin-1-yl)but-2-enamide]
17 | 9.9 nM | 0.8 nM | COc1cc2ncnc(Nc3ccc(F)c(Cl)c3)c2cc1NC(=O)/C=C/CN1CCC(N2CCN(CCCC#Cc3cccc4c3CN(C3CCC(=O)NC3=O)C4=O)CC2)CC1 (stereo not drawn) [SIAIS262050, (E)-N-(4-((3-chloro-4-fluorophenyl)amino)-7-methoxyquinazolin-6-yl)-4-(4-(4-(5-(2-(2,6-dioxopiperidin-3-yl)-1-oxoisoindolin-4-yl)pent-4-yn-1-yl)piperazin-1-yl)piperidin-1-yl)but-2-enamide]
18 | 2.5 nM | 2.5 nM | COc1cc2ncnc(Nc3ccc(F)c(Cl)c3)c2cc1NC(=O)/C=C/CN1CCC(N2CCN(CCCCC#Cc3cccc4c3CN(C3CCC(=O)NC3=O)C4=O)CC2)CC1 (stereo not drawn) [SIAIS262051, (E)-N-(4-((3-chloro-4-fluorophenyl)amino)-7-methoxyquinazolin-6-yl)-4-(4-(4-(6-(2-(2,6-dioxopiperidin-3-yl)-1-oxoisoindolin-4-yl)hex-5-yn-1-yl)piperazin-1-yl)piperidin-1-yl)but-2-enamide]
